Reference: US12495798B2, “Nicotinamide compound and herbicidal composition comprising compound” (KOREA RESEARCH INSTITUTE OF CHEMICAL TECHNOLOGY, priority 2019, dated 2025)

Tests used:
Type in all cases: in vivo
sorghum = assay: Herbicidal activity test against upland field weeds (foliar treatment test); design: key to Foliar treatment herbicidal activity, Sorghum: 0 (no control); 100 (complete control); conditions: 50 g ai/ha, scale 0-100; for plant injury at 50 g/ha: Sorghum
Summary of the method: (§1)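 Visual 0–100 control ratings relative to untreated plants, taken 14 (or 21) days after spraying foliage at 50 or 75 g a.i./ha. Spray solution: 50% acetone with 0.1% Tween-20; plants kept in greenhouse at 30±5 °C, 14 h light/10 h dark.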

barnyard grass = assay: as above; conditions: 50 g ai/ha, scale 0-100; for pest or weed control at 50 g/ha: Echinochloa crus-galli
Summary of the method: as §1

quack grass = assay: as above; design: key to Foliar treatment herbicidal activity, quack grass: 0 (no control); 100 (complete control); conditions: 50 g ai/ha, scale 0-100
Summary of the method: as §1

crabgrass = assay: as above; design: key to Foliar treatment herbicidal activity, Crabgrass: 0 (no control); 100 (complete control); conditions: 50 g ai/ha, scale 0-100; for pest or weed control at 50 g/ha: Digitaria sanguinalis
Summary of the method: as §1

fall panicum = assay: as above; conditions: 50 g ai/ha, scale 0-100; for pest or weed control at 50 g/ha: Panicum dichotomiflorum
Summary of the method: as §1

black nightshade = assay: as above; design: key to Foliar treatment herbicidal activity, black nightshade: 0 (no control); 100 (complete control); conditions: 50 g ai/ha, scale 0-100; for pest or weed control at 50 g/ha: Solanum nigrum
Summary of the method: as §1

indian jointvetch = assay: as above; design: key to Foliar treatment herbicidal activity, Indian jointvetch: 0 (no control); 100 (complete control); conditions: 50 g ai/ha, scale 0-100
Summary of the method: as §1

velvetleaf = assay: as above; conditions: 50 g ai/ha; for pest or weed control at 50 g/ha: Abutilon theophrasti, scale 0-100, read-out: Foliar treatment herbicidal activity, velvet leaf
Summary of the method: as §1

cocklebur = assay: as above; conditions: 50 g ai/ha, scale 0-100; for pest or weed control at 50 g/ha: Xanthium strumarium
Summary of the method: as §1

bindweed = assay: as above; conditions: 50 g ai/ha, scale 0-100
Summary of the method: as §1

corn = assay: Phytotoxicity test for upland field crops (foliar treatment test); design: key: 0 (no harm); 9 (complete withered)
Summary of the method: (§2)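 Spray-booth foliar treatment of greenhouse-grown crops at 19˜300 g a.i./ha. Visual crop injury was scored 0–9 against untreated plants at 7 and 14 days.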

wheat = assay: as above; design: key: 0 (no harm); 9 (complete withered)
Summary of the method: as §2

[1] = 50 g ai/ha, Corn (7 days after treatment)
[2] = 50 g ai/ha, Corn (14 days after treatment)
[3] = 100 g ai/ha, Corn (7 days after treatment)
[4] = 100 g ai/ha, Corn (14 days after treatment)
[5] = 50 g ai/ha, Wheat (7 days after treatment)
[6] = 50 g ai/ha, Wheat (14 days after treatment)
[7] = 100 g ai/ha, Wheat (7 days after treatment)
[8] = 100 g ai/ha, Wheat (14 days after treatment)

C=CCn1nnnc1NC(=O)c1ccc(C(F)(F)F)nc1COCc1nc(C(F)(F)F)n(C)n1 [Compound No. 2-121, N-(1-allyl-1H-tetrazol-5-yl)-2-(((1-methyl-5-(trifluoromethyl)-1H-1,2,4-triazol-3-yl)methoxy)methyl)-6-(trifluoromethyl)nicotinamide]
plant injury at 50 g/ha (sorghum): 10%
pest or weed control at 50 g/ha (barnyard grass): 20%
Foliar treatment herbicidal activity, quack grass (quack grass): 0
pest or weed control at 50 g/ha (crabgrass): 30%
pest or weed control at 50 g/ha (fall panicum): 50%
pest or weed control at 50 g/ha (black nightshade): 95%
pest or weed control at 50 g/ha (indian jointvetch): 30%
pest or weed control at 50 g/ha (velvetleaf): 40%
pest or weed control at 50 g/ha (cocklebur): 70%
pest or weed control at 50 g/ha (bindweed): 40%
Foliar treatment phytotoxicity, Corn (corn; [1]): 0
Foliar treatment phytotoxicity, Corn (corn; [2]): 0
Foliar treatment phytotoxicity, Corn (corn; [3]): 0
Foliar treatment phytotoxicity, Corn (corn; [4]): 0
Foliar treatment phytotoxicity, Wheat (wheat; [5]): 0
Foliar treatment phytotoxicity, Wheat (wheat; [6]): 0
Foliar treatment phytotoxicity, Wheat (wheat; [7]): 0
Foliar treatment phytotoxicity, Wheat (wheat; [8]): 0

Cn1nnnc1NC(=O)c1ccc(C(F)(F)F)nc1COCc1nc(S(C)(=O)=O)n(C)n1 [Compound No. 2-132, N-(1-methyl-1H-tetrazol-5-yl)-2-(((1-methyl-5-(methylsulfonyl)-1H-1,2,4-triazol-3-yl)methoxy)methyl)-6-(trifluoromethyl)nicotinamide]
plant injury at 50 g/ha (sorghum): 30%
pest or weed control at 50 g/ha (barnyard grass): 98%
Foliar treatment herbicidal activity, quack grass (quack grass): 0
pest or weed control at 50 g/ha (crabgrass): 98%
pest or weed control at 50 g/ha (fall panicum): 50%
Foliar treatment herbicidal activity, black nightshade (black nightshade): 100
pest or weed control at 50 g/ha (indian jointvetch): 20%
pest or weed control at 50 g/ha (velvetleaf): 98%
pest or weed control at 50 g/ha (cocklebur): 98%
pest or weed control at 50 g/ha (bindweed): 70%
Foliar treatment phytotoxicity, Corn (corn; [1]): 0
Foliar treatment phytotoxicity, Corn (corn; [2]): 0
Foliar treatment phytotoxicity, Corn (corn; [3]): 0
Foliar treatment phytotoxicity, Corn (corn; [4]): 0
Foliar treatment phytotoxicity, Wheat (wheat; [5]): 3
Foliar treatment phytotoxicity, Wheat (wheat; [6]): 2
Foliar treatment phytotoxicity, Wheat (wheat; [7]): 3
Foliar treatment phytotoxicity, Wheat (wheat; [8]): 2

CCn1nnc(COCc2nc(C(F)(F)F)ccc2C(=O)Nc2nnnn2C)n1 [Compound No. 2-87, 2-(((2-ethyl-2H-tetrazol-5-yl)methoxy)methyl)-N-(1-methyl-1H-tetrazol-5-yl)-6-(trifluoromethyl)nicotinamide]
Foliar treatment herbicidal activity, Sorghum (sorghum): 0
pest or weed control at 50 g/ha (barnyard grass): 10%
Foliar treatment herbicidal activity, quack grass (quack grass): 0
Foliar treatment herbicidal activity, Crabgrass (crabgrass): 0
pest or weed control at 50 g/ha (fall panicum): 40%
pest or weed control at 50 g/ha (black nightshade): 98%
pest or weed control at 50 g/ha (indian jointvetch): 20%
pest or weed control at 50 g/ha (velvetleaf): 70%
pest or weed control at 50 g/ha (cocklebur): 60%
pest or weed control at 50 g/ha (bindweed): 80%
Foliar treatment phytotoxicity, Corn (corn; [1]): 0
Foliar treatment phytotoxicity, Corn (corn; [2]): 0
Foliar treatment phytotoxicity, Corn (corn; [3]): 0
Foliar treatment phytotoxicity, Corn (corn; [4]): 0
Foliar treatment phytotoxicity, Wheat (wheat; [5]): 0
Foliar treatment phytotoxicity, Wheat (wheat; [6]): 0
Foliar treatment phytotoxicity, Wheat (wheat; [7]): 0
Foliar treatment phytotoxicity, Wheat (wheat; [8]): 0

C=C(C)c1nc(COCc2nc(C(F)(F)F)ccc2C(=O)Nc2nnnn2C)nn1C [Compound No. 2-128, N-(1-methyl-1H-tetrazol-5-yl)-2-(((1-methyl-5-(prop-1-en-2-yl)-1H-1,2,4-triazol-3-yl)methoxy)methyl)-6-(trifluoromethyl)nicotinamide]
plant injury at 50 g/ha (sorghum): 20%
pest or weed control at 50 g/ha (barnyard grass): 60%
Foliar treatment herbicidal activity, quack grass (quack grass): 0
pest or weed control at 50 g/ha (crabgrass): 60%
pest or weed control at 50 g/ha (fall panicum): 70%
pest or weed control at 50 g/ha (black nightshade): 90%
Foliar treatment herbicidal activity, Indian jointvetch (indian jointvetch): 0
pest or weed control at 50 g/ha (velvetleaf): 70%
pest or weed control at 50 g/ha (cocklebur): 50%
pest or weed control at 50 g/ha (bindweed): 40%
Foliar treatment phytotoxicity, Corn (corn; [1]): 1
Foliar treatment phytotoxicity, Corn (corn; [2]): 0
Foliar treatment phytotoxicity, Corn (corn; [3]): 2
Foliar treatment phytotoxicity, Corn (corn; [4]): 0
Foliar treatment phytotoxicity, Wheat (wheat; [5]): 0
Foliar treatment phytotoxicity, Wheat (wheat; [6]): 0
Foliar treatment phytotoxicity, Wheat (wheat; [7]): 0
Foliar treatment phytotoxicity, Wheat (wheat; [8]): 0

C=CCn1nnnc1NC(=O)c1ccc(C(F)(F)F)nc1COCc1nc(C(F)F)n(C)n1 [Compound No. 2-125, N-(1-allyl-1H-tetrazol-5-yl)-2-(((5-(difluoromethyl)-1-methyl-1H-1,2,4-triazol-3-yl)methoxy)methyl)-6-(trifluoromethyl)nicotinamide]
plant injury at 50 g/ha (sorghum): 30%
pest or weed control at 50 g/ha (barnyard grass): 60%
pest or weed control at 50 g/ha (quack grass): 40%
pest or weed control at 50 g/ha (crabgrass): 95%
pest or weed control at 50 g/ha (fall panicum): 90%
pest or weed control at 50 g/ha (black nightshade): 95%
pest or weed control at 50 g/ha (indian jointvetch): 60%
pest or weed control at 50 g/ha (velvetleaf): 40%
pest or weed control at 50 g/ha (cocklebur): 80%
pest or weed control at 50 g/ha (bindweed): 95%
Foliar treatment phytotoxicity, Corn (corn; [1]): 0
Foliar treatment phytotoxicity, Corn (corn; [2]): 0
Foliar treatment phytotoxicity, Corn (corn; [3]): 1
Foliar treatment phytotoxicity, Corn (corn; [4]): 1
Foliar treatment phytotoxicity, Wheat (wheat; [5]): 0
Foliar treatment phytotoxicity, Wheat (wheat; [6]): 0
Foliar treatment phytotoxicity, Wheat (wheat; [7]): 0
Foliar treatment phytotoxicity, Wheat (wheat; [8]): 0

Cn1nnnc1NC(=O)c1ccc(C(F)(F)F)nc1COCc1nc(C(F)F)n(C)n1 [Compound No. 2-123]
Foliar treatment herbicidal activity, Sorghum (sorghum): 70
Foliar treatment herbicidal activity, barnyard grass (barnyard grass): 95
Foliar treatment herbicidal activity, quack grass (quack grass): 40
Foliar treatment herbicidal activity, Crabgrass (crabgrass): 95
Foliar treatment herbicidal activity, Fall panicum (fall panicum): 95
Foliar treatment herbicidal activity, black nightshade (black nightshade): 98
Foliar treatment herbicidal activity, Indian jointvetch (indian jointvetch): 70
Foliar treatment herbicidal activity, velvet leaf (velvetleaf; scale 0-100): 70
Foliar treatment herbicidal activity, Cocklebur (cocklebur): 90
Foliar treatment herbicidal activity, Bindweed (bindweed): 80
Foliar treatment phytotoxicity, Corn (corn; [1]): 3
Foliar treatment phytotoxicity, Corn (corn; [2]): 2
Foliar treatment phytotoxicity, Corn (corn; [3]): 4
Foliar treatment phytotoxicity, Corn (corn; [4]): 4
Foliar treatment phytotoxicity, Wheat (wheat; [5]): 0
Foliar treatment phytotoxicity, Wheat (wheat; [6]): 0
Foliar treatment phytotoxicity, Wheat (wheat; [7]): 0
Foliar treatment phytotoxicity, Wheat (wheat; [8]): 0

CCCn1nnnc1NC(=O)c1ccc(C(F)(F)F)nc1COCc1ncn(C)n1 [Compound No. 2-114, 2-(((1-methyl-1H-1,2,4-triazol-3-yl)methoxy)methyl)-N-(1-propyl-1H-tetrazol-5-yl)-6-(trifluoromethyl)nicotinamide]
Foliar treatment herbicidal activity, Sorghum (sorghum): 0
pest or weed control at 50 g/ha (barnyard grass): 60%
pest or weed control at 50 g/ha (quack grass): 10%
Foliar treatment herbicidal activity, Crabgrass (crabgrass): 0
pest or weed control at 50 g/ha (fall panicum): 40%
pest or weed control at 50 g/ha (black nightshade): 95%
pest or weed control at 50 g/ha (indian jointvetch): 20%
pest or weed control at 50 g/ha (velvetleaf): 70%
pest or weed control at 50 g/ha (cocklebur): 90%
pest or weed control at 50 g/ha (bindweed): 80%
Foliar treatment phytotoxicity, Corn (corn; [1]): 1
Foliar treatment phytotoxicity, Corn (corn; [2]): 0
Foliar treatment phytotoxicity, Corn (corn; [3]): 2
Foliar treatment phytotoxicity, Corn (corn; [4]): 0
Foliar treatment phytotoxicity, Wheat (wheat; [5]): 1
Foliar treatment phytotoxicity, Wheat (wheat; [6]): 0
Foliar treatment phytotoxicity, Wheat (wheat; [7]): 2
Foliar treatment phytotoxicity, Wheat (wheat; [8]): 1

Cn1nnnc1NC(=O)c1ccc(C(F)(F)F)nc1COCc1nc(C(F)(F)F)n(C)n1 [Compound No. 2-118, N-(1-methyl-1H-tetrazol-5-yl)-2-(((1-methyl-5-(trifluoromethyl)-1H-1,2,4-triazol-3-yl)methoxy)methyl)-6-(trifluoromethyl)nicotinamide]
plant injury at 50 g/ha (sorghum): 40%
pest or weed control at 50 g/ha (barnyard grass): 95%
Foliar treatment herbicidal activity, quack grass (quack grass): 0
pest or weed control at 50 g/ha (crabgrass): 90%
pest or weed control at 50 g/ha (fall panicum): 95%
Foliar treatment herbicidal activity, black nightshade (black nightshade): 100
pest or weed control at 50 g/ha (indian jointvetch): 50%
pest or weed control at 50 g/ha (velvetleaf): 90%
pest or weed control at 50 g/ha (cocklebur): 90%
pest or weed control at 50 g/ha (bindweed): 95%
Foliar treatment phytotoxicity, Corn (corn; [1]): 0
Foliar treatment phytotoxicity, Corn (corn; [2]): 0
Foliar treatment phytotoxicity, Corn (corn; [3]): 0
Foliar treatment phytotoxicity, Corn (corn; [4]): 0
Foliar treatment phytotoxicity, Wheat (wheat; [5]): 0
Foliar treatment phytotoxicity, Wheat (wheat; [6]): 0
Foliar treatment phytotoxicity, Wheat (wheat; [7]): 0
Foliar treatment phytotoxicity, Wheat (wheat; [8]): 0
